Laboratory results from ChEMBL document CHEMBL1177886, “Synthesis and biological evaluation of a novel series of 2,2-bisaminomethylated aurone analogues as anti-inflammatory and antimicrobial agents” (Eur J Med Chem, 2010).
In brackets after ≈: the same amount, converted by molar mass.

Key:
[1] = tested on: Penicillium chrysogenum; assay: Antifungal activity against Penicillium chrysogenum NCIM 707 after 72 hrs by disc diffusion method; assay type: functional; details: for MIC: Penicillium chrysogenum, NCIM 707, 72 h
[2] = tested on: Candida albicans; assay: Antifungal activity against Candida albicans NCIM 3100 after 72 hrs by disc diffusion method; assay type: functional; details: for MIC: Candida albicans, NCIM 3100, 72 h
[3] = tested on: Aspergillus niger; assay: Antifungal activity against Aspergillus niger NCIM 545 after 72 hrs by disc diffusion method; assay type: functional; details: for MIC: Aspergillus niger, NCIM 545, 72 h
[4] = tested on: Trichoderma viride; assay: Antifungal activity against Trichoderma viride TT after 72 hrs by disc diffusion method; assay type: functional; details: for MIC: Trichoderma viride, TT, 72 h
[5] = tested on: Aspergillus fumigatus; assay: Antifungal activity against Aspergillus fumigatus NCIM 902 after 72 hrs by disc diffusion method; assay type: functional; details: for MIC: Aspergillus fumigatus, NCIM 902, 72 h
[6] = tested on: Bacillus subtilis; assay: Antibacterial activity against Bacillus subtilis NCIM 2546 after 24 hrs by disc diffusion method; assay type: functional; details: for MIC: Bacillus subtilis, NCIM 2546, 24 h
[7] = tested on: THP-1; assay: Antiinflammatory activity in human THP1 cells assessed as inhibition of LPS-induced IL-6 production at 10 uM treated 30 mins before LPS challenge measured after 24 hrs by ELISA relative to control; assay type: functional
[8] = tested on: THP-1; assay: Antiinflammatory activity in human THP1 cells assessed as inhibition of LPS-induced TNFalpha production at 10 uM treated 30 mins before LPS challenge measured after 24 hrs by ELISA relative to control; assay type: functional
[9] = tested on: Escherichia coli; assay: Antibacterial activity against Escherichia coli NCIM 2065 after 24 hrs by disc diffusion method; assay type: functional; details: for MIC: Escherichia coli, NCIM 2065, 24 h
[10] = tested on: Proteus vulgaris; assay: Antibacterial activity against Proteus vulgaris NCIM 2813 after 24 hrs by disc diffusion method; assay type: functional; details: for MIC: Proteus vulgaris, NCIM 2813, 24 h
[11] = Cytotoxicity against human THP-1 cells at 10 uM; details: THP-1, 10 µM
[12] = tested on: Klebsiella pneumoniae; assay: Antibacterial activity against Klebsiella pneumoniae NCIM 5082 after 24 hrs by disc diffusion method; assay type: functional; details: for MIC: Klebsiella pneumoniae, NCIM 5082, 24 h
[13] = tested on: Staphylococcus aureus; assay: Antibacterial activity against Staphylococcus aureus NCIM 2120 after 24 hrs by disc diffusion method; assay type: functional; details: for MIC: Staphylococcus aureus, NCIM 2120, 24 h
[14] = tested on: THP-1; assay: Antiinflammatory activity in human THP1 cells assessed as inhibition of LPS-induced TNFalpha production at 1 uM treated 30 mins before LPS challenge measured after 24 hrs by ELISA relative to control; assay type: functional
[15] = tested on: THP-1; assay: Antiinflammatory activity in human THP1 cells assessed as inhibition of LPS-induced IL-6 production at 1 uM treated 30 mins before LPS challenge measured after 24 hrs by ELISA relative to control; assay type: functional
[16] = tested on: Bacillus subtilis; assay: Antibacterial activity against Bacillus subtilis after 24 hrs by disc diffusion method
[17] = tested on: Bacillus subtilis; details: NCIM 2546
[18] = tested on: Proteus vulgaris; details: NCIM 2813
[19] = tested on: Staphylococcus aureus; details: NCIM 2120
[20] = tested on: Klebsiella pneumoniae; details: NCIM 5082
[21] = tested on: Escherichia coli; details: NCIM 2065

Compound | inhibition zone (IZ) [1] | MIC [1] | inhibition zone (IZ) [2] | MIC [2] | inhibition zone (IZ) [3] | MIC [3] | inhibition zone (IZ) [4] | MIC [4] | inhibition zone (IZ) [5] | MIC [5] | inhibition zone (IZ) [6] | MIC [6] | inhibition at 10 µM [7] | inhibition at 10 µM [8] | MIC [9] | inhibition zone (IZ) [10] | MIC [10] | MIC [12] | MIC [13] | inhibition zone (IZ) [13] | further results
OC(Cn1cncn1)(Cn1cncn1)c1ccc(F)cc1F [FLUCONAZOLE] | 24 mm | 25 mg/L (≈ 81.6 µM) | 24 mm | 25 mg/L (≈ 81.6 µM) | 24 mm | 25 mg/L (≈ 81.6 µM) | 18 mm | 25 mg/L (≈ 81.6 µM) | 21 mm | 25 mg/L (≈ 81.6 µM) | – | – | – | – | – | – | – | – | – | – | –
COc1cc(OC)c2c(c1)OC(CN1CCN(C)CC1)(CN1CCN(C)CC1)C2=O | 14 mm | 50 mg/L (≈ 119 µM) | – | > 100 mg/L | 14 mm | 50 mg/L (≈ 119 µM) | – | – | 15 mm | 50 mg/L (≈ 119 µM) | 14 mm | 50 mg/L (≈ 119 µM) | 97% | 76% | 50 mg/L (≈ 119 µM) | 16 mm | 25 mg/L (≈ 59.7 µM) | > 100 mg/L | > 100 mg/L | – | inhibition zone (IZ) [9]: 14 mm; Activity [11]: 29%
COc1cc(OC)c2c(c1)OC(CN1CCCCC1)(CN1CCCCC1)C2=O | 18 mm | 25 mg/L (≈ 64.3 µM) | – | > 100 mg/L | 17 mm | 25 mg/L (≈ 64.3 µM) | 14 mm | 50 mg/L (≈ 129 µM) | 16 mm | 50 mg/L (≈ 129 µM) | 18 mm | 25 mg/L (≈ 64.3 µM) | 82% | 35% | 25 mg/L (≈ 64.3 µM) | 15 mm | 50 mg/L (≈ 129 µM) | 25 mg/L (≈ 64.3 µM) | 25 mg/L (≈ 64.3 µM) | 16 mm | Activity [11]: 21%; inhibition zone (IZ) [12]: 18 mm
C[C@@H]1C[C@H]2[C@@H]3CCC4=CC(=O)C=C[C@]4(C)[C@@]3(F)[C@@H](O)C[C@]2(C)[C@@]1(O)C(=O)CO [DEXAMETHASONE] | – | – | – | – | – | – | – | – | – | – | – | – | – | – | – | – | – | – | – | – | inhibition at 1 µM [14]: 69%; inhibition at 1 µM [15]: 90%
COc1cc(OC)c2c(c1)OC(CN1CCOCC1)(CN1CCOCC1)C2=O | 23 mm | 25 mg/L (≈ 63.7 µM) | 15 mm | 50 mg/L (≈ 127 µM) | 24 mm | 25 mg/L (≈ 63.7 µM) | 15 mm | 25 mg/L (≈ 63.7 µM) | 18 mm | 25 mg/L (≈ 63.7 µM) | 16 mm | 25 mg/L (≈ 63.7 µM) | 100% | 89% | 25 mg/L (≈ 63.7 µM) | 22 mm | 25 mg/L (≈ 63.7 µM) | > 100 mg/L | 50 mg/L (≈ 127 µM) | 15 mm | inhibition zone (IZ) [9]: 16 mm; Activity [11]: 66%
COc1cc(OC)c2c(c1)OC(CN1CCCC1)(CN1CCCC1)C2=O | 16 mm | 25 mg/L (≈ 69.4 µM) | 14 mm | 50 mg/L (≈ 139 µM) | 21 mm | 25 mg/L (≈ 69.4 µM) | 15 mm | 50 mg/L (≈ 139 µM) | 22 mm | 25 mg/L (≈ 69.4 µM) | 20 mm | 25 mg/L (≈ 69.4 µM) | 100% | 100% | 25 mg/L (≈ 69.4 µM) | 22 mm | 25 mg/L (≈ 69.4 µM) | 25 mg/L (≈ 69.4 µM) | 25 mg/L (≈ 69.4 µM) | 15 mm | inhibition zone (IZ) [16]: 18 mm; Activity [11]: 83%; inhibition zone (IZ) [12]: 20 mm
CCN1CCN(CC2(CN3CCN(CC)CC3)Oc3cc(OC)cc(OC)c3C2=O)CC1 | 16 mm | 25 mg/L (≈ 56 µM) | 13 mm | 50 mg/L (≈ 112 µM) | 14 mm | 50 mg/L (≈ 112 µM) | 13 mm | 50 mg/L (≈ 112 µM) | 14 mm | 50 mg/L (≈ 112 µM) | 16 mm | 50 mg/L (≈ 112 µM) | – | – | 50 mg/L (≈ 112 µM) | 14 mm | 50 mg/L (≈ 112 µM) | 25 mg/L (≈ 56 µM) | 25 mg/L (≈ 56 µM) | 15 mm | inhibition zone (IZ) [9]: 16 mm; inhibition zone (IZ) [12]: 17 mm
CCN(C)CC1(CN(C)CC)Oc2cc(OC)cc(OC)c2C1=O | 15 mm | 50 mg/L (≈ 149 µM) | – | > 100 mg/L | – | > 100 mg/L | – | > 100 mg/L | 14 mm | 50 mg/L (≈ 149 µM) | – | > 100 mg/L | – | – | > 100 mg/L | – | > 100 mg/L | > 100 mg/L | > 100 mg/L | – | –
COc1cc(OC)c2c(c1)OC(CN(C)C)(CN(C)C)C2=O | 15 mm | 50 mg/L (≈ 162 µM) | 16 mm | 25 mg/L (≈ 81.1 µM) | 16 mm | 50 mg/L (≈ 162 µM) | 15 mm | 25 mg/L (≈ 81.1 µM) | 18 mm | 25 mg/L (≈ 81.1 µM) | 14 mm | 50 mg/L (≈ 162 µM) | – | – | 50 mg/L (≈ 162 µM) | 15 mm | 50 mg/L (≈ 162 µM) | 50 mg/L (≈ 162 µM) | 50 mg/L (≈ 162 µM) | 14 mm | inhibition zone (IZ) [16]: 15 mm; inhibition zone (IZ) [12]: 15 mm
GENTAMICIN | – | – | – | – | – | – | – | – | – | – | – | – | – | – | – | – | – | – | – | – | IZ [17]: 21 mm; MIC [17]: 25 mg/L; IZ [18]: 24 mm; MIC [18]: 25 mg/L; MIC [19]: 25 mg/L; IZ [20]: 24 mm; MIC [20]: 25 mg/L; MIC [21]: 25 mg/L
CCN(CC)CC1(CN(CC)CC)Oc2cc(OC)cc(OC)c2C1=O | 15 mm | 50 mg/L (≈ 137 µM) | 16 mm | 25 mg/L (≈ 68.6 µM) | 17 mm | 25 mg/L (≈ 68.6 µM) | 16 mm | 25 mg/L (≈ 68.6 µM) | 17 mm | 25 mg/L (≈ 68.6 µM) | 18 mm | 25 mg/L (≈ 68.6 µM) | 74% | 28% | 25 mg/L (≈ 68.6 µM) | 17 mm | 25 mg/L (≈ 68.6 µM) | 25 mg/L (≈ 68.6 µM) | 25 mg/L (≈ 68.6 µM) | 16 mm | inhibition zone (IZ) [16]: 17 mm; Activity [11]: 37%; inhibition zone (IZ) [12]: 17 mm
CCCCN(CCCC)CC1(CN(CCCC)CCCC)Oc2cc(OC)cc(OC)c2C1=O | 24 mm | 25 mg/L (≈ 52.4 µM) | 17 mm | 25 mg/L (≈ 52.4 µM) | 26 mm | 25 mg/L (≈ 52.4 µM) | 16 mm | 25 mg/L (≈ 52.4 µM) | 22 mm | 25 mg/L (≈ 52.4 µM) | 21 mm | 25 mg/L (≈ 52.4 µM) | 37% | 17% | 25 mg/L (≈ 52.4 µM) | 22 mm | 25 mg/L (≈ 52.4 µM) | 25 mg/L (≈ 52.4 µM) | 25 mg/L (≈ 52.4 µM) | 18 mm | inhibition zone (IZ) [16]: 18 mm; Activity [11]: 65%; inhibition zone (IZ) [12]: 21 mm
